Measurements as given in paper PMC8277928, “Influence of Terminal Functionality on the Crystal Packing Behaviour and Cytotoxicity of Aromatic Oligoamides” (Frontiers in Chemistry, 2021).
Where two headings read alike, the source gives them in different places.

Experiments:
[1] = system: A2780 cisplatin-sensitive ovarian carcinoma cells; assay: MTT cytotoxicity (chemosensitivity) assay, 96 h; format: cell-based, human; settings: for IC50: 96 h incubation, MTT, 37°C, 5% CO2, read-out: IC50 values (μM) ± SD, A2780; for Selectivity Index (SI), A2780 compared to PNT-2: IC50 PNT-2 divided by IC50 A2780, * = minimum SI value
Protocol: (§1) The IC50 values were obtained via the MTT assay after a 96 h incubation period of each compound with the cells at 37°C and 5% CO2 (Table 2; Figure 6). […]
(§2) In vitro chemosensitivity assays were performed against human ovarian carcinoma (A2780), cisplatin-resistant human ovarian carcinoma (A2780cisR) and human breast adenocarcinomas (MCF-7 and MDA-MB-231). Additionally, growth inhibitory effects were also tested against non-malignant prostate cell line immortalised with SV40, PNT-2. All cell lines were provided by the Institute of Cancer Therapeutics, University of Bradford and were routinely maintained as monolayer cultures in RPMI 1640 media supplemented with 10% foetal calf serum, sodium pyruvate (1 mM) and L-glutamine (2 mM). All assays were conducted in 96-well round bottom plates, with control lanes for media and 100% cell growth. Cell concentrations of 1 x 10^4 cells/mL were used, and 100 µL (or 100 µL media in control lane 1) of cell suspension were incubated for 24 h at 37 °C and 5% CO2 prior to drug exposure.
(§3) 100 mM stock solutions, which were further diluted with complete me dia to provide a range of final concentrations. After 24 h, 100 μL of the drug/media solutions were added to the plates (columns 3-12 drug concentrations, with 100 µL media in the control lanes), and then the plates incubated for 96 h at 37°C and 5% CO2. All drug solutions were added to the plates so that the final DMSO concentrations were <0.1% (v/v) in all cases. After 96 h, 3-(4,5-dimethylthiazol-2-yl)-2,5-diphenyltetrazolium bromide (MTT) (20 µL, 5 mg/mL) was added to each well and incubated for 3 h at 37 °C and 5% CO2. All solutions were then removed via pipette, 150 μL DMSO added to each well and the formazan crystals mixed thoroughly. A Thermo Scientific Multiscan EX microplate photometer was used to measure the absorbance of each well at 540 nm. Percentage cell viabilities were determined on a logarithmic scale, and the half maximal inhibitory concentration (IC50) determined from a plot of % cell survival versus concentration (µM). Each of the experiments was performed as duplicate technical repeats and triplicate experimental repeats, with mean values as the IC50 ± Standard Deviation (SD).

[2] = system: A2780cisR cisplatin-resistant ovarian carcinoma cells; assay: MTT cytotoxicity (chemosensitivity) assay, 96 h; format: cell-based, human; settings: for IC50: 96 h incubation, MTT, 37°C, 5% CO2, read-out: IC50 values (μM) ± SD, A2780cisR; for Selectivity Index (SI), A2780cisR compared to PNT-2: IC50 PNT-2 divided by IC50 A2780cisR, * = minimum SI value
Protocol: as §1, §2, §3

[3] = system: MCF-7 breast adenocarcinoma cells; assay: MTT cytotoxicity (chemosensitivity) assay, 96 h; format: cell-based, human; settings: for IC50: 96 h incubation, MTT, 37°C, 5% CO2, read-out: IC50 values (μM) ± SD, MCF-7; for Selectivity Index (SI), MCF-7 compared to PNT-2: IC50 PNT-2 divided by IC50 MCF-7, * = minimum SI value
Protocol: as §1, §2, §3

[4] = system: MDA-MB-231 breast adenocarcinoma cells; assay: MTT cytotoxicity (chemosensitivity) assay, 96 h; format: cell-based, human; settings: for IC50: 96 h incubation, MTT, 37°C, 5% CO2, read-out: IC50 values (μM) ± SD, MDA-MB-231; for Selectivity Index (SI), MDA-MB-231 compared to PNT-2: IC50 PNT-2 divided by IC50 MDA-MB-231, * = minimum SI value
Protocol: as §1, §2, §3

[5] = system: PNT-2 non-malignant prostate cell line (immortalized with SV40); assay: MTT cytotoxicity (chemosensitivity) assay, 96 h, non-malignant cells; format: cell-based, human; settings: 37°C, 5% CO2, read-out: IC50 values (μM) ± SD, PNT-2
Protocol: A SI value >1 indicates increased selectivity for the cancerous cell line over the non-malignant one, whilst a SI value <1 indicates the inverse (i.e., increased selectivity for the non-malignant cell line over the cancerous one). […]
as §2, §3

[6] = system: A2780, A2780cisR, MCF-7 and MDA-MB-231 cells; assay: MTT cytotoxicity assay, 96 h, range over all cancer cell lines; format: cell-based; settings: Homo sapiens, read-out: IC50 values against all cell lines (range)
Protocol: as §1
as §2, with “Cell concentrations of 1 x 10^4 cells/mL were used, and 100 µL (or 100 µL media in control lane 1) of cell suspension were incubated for 24 h at 37 °C and 5% CO2 prior to drug exposure.” left out
100 mM stock solutions, which were further diluted with complete me dia to provide a range of final concentrations. […] A Thermo Scientific Multiscan EX microplate photometer was used to measure the absorbance of each well at 540 nm. Percentage cell viabilities were determined on a logarithmic scale, and the half maximal inhibitory concentration (IC50) determined from a plot of % cell survival versus concentration (µM). […]

[7] = Homo sapiens, PNT2, 96 h incubation

SMILES	IC50 [1] [µM]	IC50 [2] [µM]	Selectivity Index (SI), A2780cisR compared to PNT-2 [2]	IC50 [3] [µM]	Selectivity Index (SI), MCF-7 compared to PNT-2 [3]	IC50 [4] [µM]	Selectivity Index (SI), MDA-MB-231 compared to PNT-2 [4]	IC50 ([5]; 96 h incubation) [µM]	IC50 ([1]; Homo sapiens, A2780) [µM]	Selectivity Index (SI), A2780 compared to PNT-2 [1]	IC50 ([2]; Homo sapiens, A2780cisR) [µM]	IC50 ([3]; Homo sapiens, MCF7) [µM]	IC50 ([4]; Homo sapiens, MDA-MB-231) [µM]	IC50 [5, 7] [µM]	IC50 [6] [µM]	cytotoxicity in words, A2780cisR ([2]; 96 h MTT)	cytotoxicity in words, MCF-7 ([3]; 96 h MTT)	cytotoxicity in words, MDA-MB-231 ([4]; 96 h MTT)	cytotoxicity in words, A2780 ([1]; 96 h MTT)
N.N.O=C([O-])C1(C(=O)[O-])CCC1.[Pt+2] [CARB, carboplatin, reference compound]	17 ± 1	> 100	> 0.3	> 100	> 0.3	33 ± 2	0.8	27 ± 2	–	–	–	–	–	–	–	–	–	–	–
[NH2][Pt]([NH2])([Cl])[Cl] [CDDP, cisplatin, reference compound]	1.3 ± 0.1	14 ± 1	0.6	1.5 ± 0.2	5.6	3.07 ± 0.02	2.8	8.5 ± 0.4	–	–	–	–	–	–	–	–	–	–	–
CC(=O)Nc1ccccc1NC(=O)c1cccc(C(=O)Nc2ccccc2NC(C)=O)n1 [Compound 1]	–	–	–	–	–	–	> 1.6	–	77 ± 5	> 1.3	> 100	> 100	63 ± 4	> 100	≥ 63	–	–	–	–
CC(C)(C)OC(=O)Nc1ccccc1NC(=O)c1cccc(C(=O)Nc2ccccc2NC(=O)OC(C)(C)C)n1 [Compound 2]	–	–	–	–	> 1.2	–	> 1.4	–	24 ± 0.9	> 4.2	> 100	84 ± 3	69 ± 3	> 100	–	moderate to non-cytotoxic	moderate to non-cytotoxic	moderate to non-cytotoxic	–
Nc1ccccc1NC(=O)c1cccc(C(=O)Nc2ccccc2N)n1 [Compound 3]	–	–	> 1.6	–	–	–	–	–	> 100	–	61 ± 2	> 100	> 100	> 100	–	–	–	–	non-toxic
O=C1[O][Pt]2([NH][C@@H]3CCCC[C@H]3[NH]2)[O]C1=O [OXA, oxaliplatin, reference compound]	0.505 ± 0.002	2.09 ± 0.03	0.6	2.6 ± 0.2	0.5	2.5 ± 0.6	0.5	1.3 ± 0.2	–	2.6	–	–	–	–	–	–	–	–	–
